Values quoted from earlier work in patent publication US20110027361A1, “EXTENDED RELEASE DOSAGE FORM OF PALIPERIDONE” (TORRENT PHARMACEUTICALS LTD., priority 2008, published 2011).

Experiments:
[1] = in vivo

terminal elimination half-life [1]: approximately 23 hours
solubility in 0.1N HCl (0.1N HCl): sparingly soluble
solubility in methylene chloride (methylene chloride): sparingly soluble
solubility in water (water): practically insoluble
SMILES: Cc1nc2n(c(=O)c1CCN1CCC(c3noc4cc(F)ccc34)CC1)CCCC2O (stereo not shown) [Paliperidone]
